Columns and labels:
[1] = biological target: T1, synthetic human Aβ1-42 fibrils (Homo sapiens, UniProt P05067); test: Competition binding assay against [^3H]SIL26 on Aβ1-42 fibrils
T1 construct: Synthetic lyophilized human Aβ1-42 peptide; purchased EMC Microcollections, Tuebingen, Germany; host or cells: chemical synthesis
Experimental: (§1) The generation of Aβ1-42 fibrils was adapted from Bagchi et al. and described by Kuebler et al.. Synthetic lyophilized human Aβ1-42 peptide (5 mg) with >90% purity (EMC Microcollections, Tuebingen, Germany) was dissolved in DMSO (221.5 µL). […] . The monomers were incubated in an Eppendorf Thermomixer at 37 °C with shaking at 800 rpm for 72 h to induce aggregation. Generated fibrils were sonicated for three minutes in a water bath (Elmasonic S 60 H, Elma Schmidbauer GmbH, Singen, Germany). The final products were aliquoted, frozen on dry ice, and stored at −80 °C until use.
(§2) Plates were incubated on a shaker (MaxQ 6000, Thermo Fisher Scientific Inc., Marietta, OH, USA) at 50 rpm for 2 h at 37 °C, covered by removable sealing tape (PerkinElmer, Waltham, MA, USA). Vacuum filtration and read-out were performed as previously reported. Briefly, a glass fiber Filtermat B (PerkinElmer, Waltham, MA, USA) incubated with 0.5% polyethylenimine (PEI; Sigma Aldrich Chemie GmbH, Munich, Germany) for 30 min at 4 °C prior to filter harvesting was used with a FilterMate Harvester (PerkinElmer, Waltham, MA, USA). Melt-on scintillator sheets (MeltiLex B/HS, PerkinElmer, Waltham, MA, USA) were melted onto dried filters. Accumulation of tritium was counted in a liquid scintillation Wallac MicroBeta TriLux counter (PerkinElmer, Waltham, MA, USA) at two minutes/well.
(§3) . Data points were fitted using non-linear regression analysis in GraphPad Prism (GraphPad Software, Inc., Version 8.4.0, San Diego, CA, USA).

[2] = biological target: T1, synthetic human Aβ1-42 fibrils; test: Competition binding assay against [^3H]MODAG−001 on Aβ1-42 fibrils; details: competition vs 1 nM [^3H]MODAG−001, Aβ1-42 fibrils 1 µM; mean ± SEM; read-out: Aβ—Ki [^3H]MODAG−001
Experimental: as §1, §2, §3

[3] = biological target: T2, human recombinant αSYN fibrils (Homo sapiens, UniProt P37840); test: Competition binding assay against [^3H]SIL26 on αSYN fibrils
Experimental: (§4) The concentrations of αSYN fibrils and Aβ1-42 fibrils as above were used.
(§5) Plates were incubated on a shaker (MaxQ 6000, Thermo Fisher Scientific Inc., Marietta, OH, USA) at 50 rpm for 2 h at 37 °C, covered by removable sealing tape (PerkinElmer, Waltham, MA, USA). Vacuum filtration and read-out were performed as previously reported [18]. Briefly, a glass fiber Filtermat B (PerkinElmer, Waltham, MA, USA) incubated with 0.5% polyethylenimine (PEI; Sigma Aldrich Chemie GmbH, Munich, Germany) for 30 min at 4 °C prior to filter harvesting was used with a FilterMate Harvester (PerkinElmer, Waltham, MA, USA). Melt-on scintillator sheets (MeltiLex B/HS, PerkinElmer, Waltham, MA, USA) were melted onto dried filters. Accumulation of tritium was counted in a liquid scintillation Wallac MicroBeta TriLux counter (PerkinElmer, Waltham, MA, USA) at two minutes/well.

[4] = biological target: T2, human recombinant αSYN fibrils; test: Competition binding assay against [^3H]MODAG−001 on αSYN fibrils; details: for αSYN—Ki [^3H]MODAG−001: competition vs 1 nM [^3H]MODAG−001, αSYN fibrils 50 nM, mean ± SEM
Experimental: as §4, §5

Aβ = details: FDA-approved Aβ PET tracers; cited from earlier work
αSYN = details: carbon-11 labeled PET tracer; cited from earlier work
[5] = competition vs [^3H]SIL26 (7 nM), αSYN fibrils 35 nM, mean ± SEM

T1 sequence (P05067 672-713 limits assumed): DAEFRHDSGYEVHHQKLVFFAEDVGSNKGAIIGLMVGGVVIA

Row | Ki [1] [nM] | Ki [2] [nM] | Ki [3] [nM] | Ki [4] [nM] | SMILES | also measured
1 | 10.7 | 10.5 ± 0.9 | 186 ± 145 | 289 ± 159 | COc1ccc2c(c1)Sc1cc(-c3cc(-c4ccccc4)n[nH]3)ccc1N2 [DAP1a, 3-Methoxy-7-(3-phenyl-1H-pyrazol-5-yl)-10H-phenothiazine] | –
2 | 7.6 | 10.3 ± 0.8 | 90.1 ± 56.8 | 69.9 ± 14.9 | COc1ccc2c(c1)Sc1cc(-c3cc(-c4ccccn4)n[nH]3)ccc1N2 [DAP1b, 3-Methoxy-7-(3-(pyridin-2-yl)-1H-pyrazol-5-yl)-10H-phenothiazine] | –
3 | 1 | 15.9 ± 2.4 | > 400 | > 400 | COc1ccc2c(c1)Sc1cc(-c3cc(-c4cccc(F)c4)n[nH]3)ccc1N2 [DAP1c, 3-(3-(3-Fluorophenyl)-1H-pyrazol-5-yl)-7-methoxy-10H-phenothiazine] | –
4 | 25.8 ± 5.8 | 7.7 ± 1.7 | > 400 | 144 ± 49.5 | FCCOc1ccc2c(c1)Sc1cc(-c3cc(-c4ccccc4)n[nH]3)ccc1N2 [DAP2a, 3-(2-Fluoroethoxy)-7-(3-phenyl-1H-pyrazol-5-yl)-10H-phenothiazine] | –
5 | 65.8 ± 56.4 | 12.2 ± 1.7 | > 400 | 107 ± 31.4 | FCCOc1ccc2c(c1)Sc1cc(-c3cc(-c4ccccn4)n[nH]3)ccc1N2 [DAP2b, 3-(2-Fluoroethoxy)-7-(3-(pyridin-2-yl)-1H-pyrazol-5-yl)-10H-phenothiazine] | –
6 | 3.1 ± 2.1 | 8 ± 1.3 | > 400 | 212 ± 93.8 | FCCOc1ccc2c(c1)Sc1cc(-c3cc(-c4cccc(F)c4)n[nH]3)ccc1N2 [DAP2c, 3-(2-Fluoroethoxy)-7-(3-(3-fluorophenyl)-1H-pyrazol-5-yl)-10H-phenothiazine] | –
7 | 86.1 | > 400 | – | – | COc1cccc(Sc2cc(-c3cc(-c4ccccc4)n[nH]3)ccc2N)c1 [DAP3a, 2-((3-Methoxyphenyl)thio)-4-(3-phenyl-1H-pyrazol-5-yl)aniline] | αSYN—Ki [^3H]SIL26 [3, 5]: no competition ^a; αSYN—Ki [^3H]MODAG−001 [4]: no competition
8 | – | > 400 | – | – | COc1cccc(Sc2cc(-c3cc(-c4ccccn4)n[nH]3)ccc2N)c1 [DAP3b, 2-((3-Methoxyphenyl)thio)-4-(3-(pyridin-2-yl)-1H-pyrazol-5-yl)aniline] | αSYN—Ki [^3H]SIL26 [3, 5]: no competition ^a; αSYN—Ki [^3H]MODAG−001 [4]: no competition
9 | – | > 400 | – | – | COc1cccc(Sc2cc(-c3cc(-c4cccc(F)c4)n[nH]3)ccc2N)c1 [DAP3c, 4-(3-(3-Fluorophenyl)-1H-pyrazol-5-yl)-2-((3-methoxyphenyl)thio)aniline] | αSYN—Ki [^3H]SIL26 [3, 5]: no competition ^a; αSYN—Ki [^3H]MODAG−001 [4]: no competition
10 | – | – | – | – | CNc1ccc(/C=C/c2ccc(OCCOCCOCCF)cc2)cc1 [Florbetaben] | Ki (Aβ): 6.7 ± 0.3 nM
11 | – | – | – | – | CNc1ccc(/C=C/c2ccc(OCCOCCOCCF)nc2)cc1 [Florbetapir] | Kd (Aβ): 3.72 ± 0.3 nM
12 | – | – | – | – | CNc1ccc(-c2nc3ccc(O)cc3s2)cc1F [Flutemetamol] | Ki (Aβ): 0.74 ± 0.38 nM
13 | – | – | – | – | CN(C)c1ccc(-c2cc(-c3ccnc(Br)c3)n[nH]2)cc1 [MODAG−001, reference compound] | Kd (αSYN): 0.6 ± 0.1 nM; Ki ([3]; read-out: αSYN—Ki [^3H]SIL26, competition vs [^3H]SIL26 (7 nM), αSYN fibrils 35 nM, mean ± SEM): 10.8 nM
14 | – | – | – | – | CN(C)c1ccc(-c2cc(-c3cccc(Br)c3)[nH]n2)cc1 [[^11C]anle253b] | IC50 (αSYN): 1.6 nM

From article PMC10224536 (Molecules, 2023)
